These results are taken from patent publication US20230212222A1 (ANYGEN CO., LTD., priority 2020, published 2023).

Structures are written as SMILES.

The test system of one data set is GPR39 KO mice. The data set can be described thus: glucose tolerance test in GPR39 KO mouse model induced by a high-fat diet. The data set is classed as in vivo. As to conditions: 16, 17 and 18-week-old GPR39 KO mice, high-fat feed, 0.5, 1, 5 and 10 mg/kg subcutaneously. The protocol: In addition, the glucose tolerance level in the GPR39 KO mouse model induced by a high-fat diet according to the HKFY derivative treatment was analyzed (FIG. 91).
Specifically, obesity was induced by providing male GPR39 KO mice (6 to 7-week-old, Central Lab. Animal Inc.) with a high-fat feed (60% fat chow) for 5-6 weeks. HKFY-34 was administered subcutaneously at a concentration of 0.5, 1, 5 and 10 mg/kg, respectively, to the 16, 17 or 18-week-old GPR39 KO mice, in which obesity was induced. After 30 minutes, glucose (1.5 g/kg) was intraperitoneally administered. After 0, 15, 30, 45, 60, 90, 120 and 180 minutes, blood was collected from the tail of the mice, and the blood glucose was measured with a blood glucose meter (acc-check, Roche, Germany) to analyze the glucose tolerance.

For data set [1], the system named is HSL, ATGL and Perilipin A in 3T3-L1 cells. The data set can be described thus: mRNA expression of lipolysis signaling factors by RT-PCR in 3T3-L1 cells. The data set is classed as cell-based. The conditions noted are these: versus isoproterenol positive control. The protocol: In addition, the mRNA expression levels of HSL (hormone-sensitive lipase), ATGL (adipose triglyceride lipase) and Perilipin A, which are important factors for lipolysis signaling according to HKFY-34 treatment, were analyzed through RT-PCR (FIG. 79). […] In addition, it was confirmed that the mRNA expression of all factors was enhanced due to GPR39 through GPR39 siRNA (FIGS. 81 to 83).

The subject of data set [2] is db/db mice. The data set can be described thus: blood insulin level in mouse model of diabetes mellitus disease (mouse ELISA). In kind it is in vivo. On the procedure: In addition, the blood insulin level was analyzed simultaneously with the glucose tolerance test for the mouse model of diabetes mellitus disease (FIG. 88).
Specifically, after 0, 15, 30, 60, 90, 120 and 180 minutes, blood was collected from the orbital veins of mice, and the insulin level in plasma was analyzed using mouse ELISA.
(In general: ELISA stands for enzyme-linked immunosorbent assay.)

Data set [3] relates to db/db mice. Briefly: drop in blood glucose level in mouse model of diabetes mellitus disease. In kind it is in vivo. On the procedure: The drop in blood glucose level in a mouse model of diabetes mellitus disease according to the HKFY derivative treatment was analyzed (FIG. 92).
Specifically, HKFY-34 was subcutaneously administered at a concentration of 0.5, 1, 5 and 10 mg/kg, respectively, to male db/db mice (5 to 7-week-old), which is a mouse model of diabetes mellitus disease. After 0, 1, 2, 4, 6, 8, 12, 18 and 24 hours, blood was collected from the tail of the mice, and the blood glucose was measured with a blood glucose meter (acc-check, Roche, Germany) to confirm the anti-diabetic effect.

A further data set deals with T1, GPR39 (Homo sapiens, UniProt O43194).
T1 sequence (O43194 1-453): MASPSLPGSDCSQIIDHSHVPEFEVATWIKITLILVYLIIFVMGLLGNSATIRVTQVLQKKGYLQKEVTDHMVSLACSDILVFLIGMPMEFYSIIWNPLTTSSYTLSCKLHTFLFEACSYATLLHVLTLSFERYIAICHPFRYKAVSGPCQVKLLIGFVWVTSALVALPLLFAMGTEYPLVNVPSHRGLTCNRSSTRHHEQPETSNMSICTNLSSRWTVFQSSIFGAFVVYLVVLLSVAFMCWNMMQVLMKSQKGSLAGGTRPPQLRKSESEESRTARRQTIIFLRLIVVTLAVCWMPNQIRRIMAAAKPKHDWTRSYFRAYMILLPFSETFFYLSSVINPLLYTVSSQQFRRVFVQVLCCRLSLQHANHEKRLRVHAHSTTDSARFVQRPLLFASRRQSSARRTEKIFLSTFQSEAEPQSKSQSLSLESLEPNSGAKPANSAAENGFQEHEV

Data set [4] relates to C57BL6/J mice with high-fat feed (DIO). The data set can be described thus: glucose tolerance test in mouse model of obesity disease (DIO). In kind it is in vivo. The conditions noted are these: FIG. 89. The protocol: In addition, the glucose tolerance level and insulin level according to HKFY-34 treatment in a mouse model of obesity disease were analyzed (FIGS. 89 and 90).
Specifically, in the glucose tolerance level and insulin level analysis experiment, the experiment was performed by changing the mouse model of diabetes mellitus disease into a mouse model of obesity disease (DIO), in which obesity was induced by providing male C57BL6/J mice (6 to 7-week-old, Central Lab. Animal Inc.) with a high-fat feed (60% fat chow) for 5-6 weeks.

For data set [5], the system named is adipose tissue (white adipose tissue, WAT). Briefly: lipolytic ability (secreted glycerol) in adipose tissue (WAT). The data set is classed as cell-based, mice. The protocol:
In addition, lipolytic ability according to the HKFY-34 treatment by concentration (100 nM, 500 nM, […] (FIG. 84). When the signal of lipolysis is transmitted, lipid droplet glycerol and free fatty acid in adipocytes are secreted as final products and come out of the cell. At this time, the degree of lipolysis can be confirmed by quantifying the secreted glycerol. Isoproterenol, a positive control group, is an agonist of β-adrenergic receptors and mainly promotes lipolytic ability in adipocytes.

Data set [6] relates to db/db mice. The data set can be described thus: glucose tolerance test in mouse model of diabetes mellitus disease. As to conditions: db/db mice, 0.5, 1, 5 and 10 mg/kg subcutaneously, glucose 1.5 g/kg i.p. after 30 minutes. The data set is classed as in vivo. On the procedure:
The glucose tolerance level in a mouse model of diabetes mellitus disease according to the HKFY derivative treatment was analyzed (FIG. 87).
Specifically, male db/db mice (5 to 7-week-old, Central Lab. Animal Inc.), which is a mouse model of diabetes mellitus disease, were fasted for 16 hours, and then HKFY-34 was administered subcutaneously at a concentration of 0.5, 1, 5 and 10 mg/kg, respectively. After 30 minutes, glucose (1.5 g/kg) was intraperitoneally administered. After 0, 15, 30, 45, 60, 90, 120 and 180 minutes, blood was collected from the tail of the mice, and the blood glucose was measured with a blood glucose meter (acc-check, Roche, Germany) to analyze the glucose tolerance.

A further data set relates to Irs2 and Ins2. Briefly: mRNA expression levels of Irs2 and Ins2 by RT-PCR. In kind it is cell-based. The protocol: The mRNA expression levels of Irs2 and Ins2, which are important factors for proliferation and differentiation of pancreatic beta cells, were analyzed through RT-PCR (FIG. 77).

`CCCCCCCC(=O)NCCCC[C@H](NC(=O)[C@@H](N)Cc1cn(C(c2ccccc2)c2ccccc2)cn1)C(=O)N[C@H](Cc1ccc(C)cc1)C(=O)N[C@@H](Cc1ccc(O)cc1)C(=O)O` [HKFY-34, ((R)-2-((S)-2-((S)-2-amino-3-(1-benzhydryl-1H-imidazol-4-yl)propanamido)-6-octanamidohexanamido)-3-(p-tolyl)propanoyl)-L-tyrosine]: the glucose tolerance entry in the data set on GPR39 KO mice is “significant glucose tolerance was not observed”. Moreover, in [1], the “mRNA expression of ATGL” value was “increased to a degree similar to that of isoproterenol”, the “mRNA expression of HSL” value is “increased to a degree similar to that of isoproterenol” and the “mRNA expression of Perilipin A” value is listed as “increased to a degree similar to that of isoproterenol”. Further, the “insulin secretion (plasma insulin level)” value in the data set with db/db mice [2] (db/db mice, 0.5, 1, 5 and 10 mg/kg subcutaneously) is “increased in a concentration dependent manner”. The insulin secretion level entry with db/db mice [2] (db/db mice, 5 and 10 mg/kg) is on record as “significantly increased”. Further, the “effect of drop in blood glucose level” value in the data set with db/db mice [3] (db/db mice, 0.5, 1, 5 and 10 mg/kg subcutaneously, 0 to 24 hours) is “exhibited in a concentration-dependent manner”. The “effect of drop in blood glucose” value with db/db mice [3] (db/db mice, 5 and 10 mg/kg) is reported as “significantly increased”. Moreover, on GPR39, the “ECmax (-fold induction over basal)” value is recorded as 22.39 ± 4.59 -fold induction over basal and the “Reporter gene assay ECmax (-fold induction over basal)” value is recorded as 22.39 ± 4.59 -fold induction over basal. In data set [4], the glucose tolerance entry is given as “glucose tolerance in a concentration dependent manner”. The lipolytic ability result in data set [5] (HKFY-34 concentration 10 μM or higher) is recorded as “significantly increased”. Besides, in [5] (by concentration, FIG. 84), the lipolytic ability result is recorded as “increased in a concentration dependent manner”. Also, the glucose tolerance entry in the data set on db/db mice [6] is given as “significant glucose tolerance in a concentration dependent manner”. In addition, in the data set on Irs2 and Ins2 (GPR39 siRNA treated group), the “mRNA expression of Ins2” value is listed as “hardly achieved” and the “mRNA expression of Irs2” value is recorded as “hardly achieved”. Besides, in the data set on Irs2 and Ins2 (RT-PCR, FIG. 77), the “mRNA expression level of Ins2” value is on record as “increased” and the “mRNA expression level of Irs2” value is reported as “increased”.
